# Reference: patent publication US20230072421A1, “TARGETED RADIOPHARMACEUTICALS FOR THE DIAGNOSIS AND TREATMENT OF PROSTATE CANCER” (Bayer AS, priority 2019, published 2023)
# Assay: Biodistribution study in LNCaP tumor-bearing mice (Th227 counted in organs)
# Format: in vivo, SCID mice
# Procedure, shortened: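 Th227 in excised, weighed organs was counted with a Germanium detector at predetermined time points (n=3 mice each). This followed one i.v. injection of radiolabelled compound into testosterone-supplemented SCID mice carrying LNCaP xenografts in Matrigel, dosed once tumors reached ~50 mm^2.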
# [1] = 0.25 h, 500 kBq/kg, study b2999
smiles,measurement,setting,value
"O=C([O-])CN1CCN(CC(=O)[O-])CCN(CC(=O)NCC2CCC(C(=O)NC(Cc3ccc4ccccc4c3)C(=O)NCCCCC(NC(=O)NC(CCC(=O)O)C(=O)O)C(=O)O)CC2)CCN(CC(=O)[O-])CC1.[227Th+4] [Example 1-B-227Th, [^227Th]Thorium (3S,10S,14S)-3-[(naphthalen-2-yl)methyl]-1,4,12-trioxo-1-{(1r,4S)-4-[(2-{4,7,10-tris[(carboxy-kappaO)methyl]-1,4,7,10-tetraazacyclododecan-1-yl-kappa^4N^1,N^4,N^7,N^10}acetamido)methyl]cyclohexyl}-2,5,11,13-tetraazahexadecane-10,14,16-tricarboxylate]",Th-227 in Blood,[1],1.68 % ID Th-227/g organ
same,Th-227 in Femur and tibia,[1],1.31 % ID Th-227/g organ
same,Th-227 in Kidneys,[1],114.94 % ID Th-227/g organ
same,Th-227 in Liver,[1],0.92 % ID Th-227/g organ
same,Th-227 in Salivary gland,[1],10.22 % ID Th-227/g organ
same,Th-227 in Spleen,[1],6.51 % ID Th-227/g organ
same,Th-227 in Tumor,[1],8.41 % ID Th-227/g organ
same,Th-227 in prostate,[1],8.53 % ID Th-227/g organ
same,Th-227 in Blood,"0.25 h, 1500 kBq/kg",6.68% ID Th-227/g organ
same,Th-227 in Liver,"0.25 h, 1500 kBq/kg",2.01% ID Th-227/g organ
same,Th-227 in Spleen,"0.25 h, 1500 kBq/kg",11.41% ID Th-227/g organ
same,Th-227 in Tumor,"0.25 h, 1500 kBq/kg",6.89% ID Th-227/g organ
same,Th-227 in bone,"0.25 h, 1500 kBq/kg",2.42% ID Th-227/g organ
same,Th-227 in brain,"0.25 h, 1500 kBq/kg",0.27% ID Th-227/g organ
same,Th-227 in kidney,"0.25 h, 1500 kBq/kg",36.39% ID Th-227/g organ
same,Th-227 in large intestine,"0.25 h, 1500 kBq/kg",1.08% ID Th-227/g organ
same,Th-227 in lung,"0.25 h, 1500 kBq/kg",4.42% ID Th-227/g organ
same,Th-227 in muscle,"0.25 h, 1500 kBq/kg",1.06% ID Th-227/g organ
same,Th-227 in prostate,"0.25 h, 1500 kBq/kg",7.80% ID Th-227/g organ
same,Th-227 in salivary glands,"0.25 h, 1500 kBq/kg",2.81% ID Th-227/g organ
same,Th-227 in small intestine,"0.25 h, 1500 kBq/kg",1.14% ID Th-227/g organ
same,Th-227 in Blood,"1 hr, 500 kBq/kg, study b2999",0.37 % ID Th-227/g organ
same,Th-227 in Femur and tibia,"1 hr, 500 kBq/kg, study b2999",0.78 % ID Th-227/g organ
same,Th-227 in Kidneys,"1 hr, 500 kBq/kg, study b2999",150.81 % ID Th-227/g organ
same,Th-227 in Liver,"1 hr, 500 kBq/kg, study b2999",0.41 % ID Th-227/g organ
same,Th-227 in Salivary gland,"1 hr, 500 kBq/kg, study b2999",17.15 % ID Th-227/g organ
same,Th-227 in Spleen,"1 hr, 500 kBq/kg, study b2999",6.04 % ID Th-227/g organ
same,Th-227 in Tumor,"1 hr, 500 kBq/kg, study b2999",10.87 % ID Th-227/g organ
same,Th-227 in prostate,"1 hr, 500 kBq/kg, study b2999",9.05 % ID Th-227/g organ
same,Th-227 in Blood,"1 hr, 1500 kBq/kg",3.85% ID Th-227/g organ
same,Th-227 in Liver,"1 hr, 1500 kBq/kg",1.99% ID Th-227/g organ
same,Th-227 in Spleen,"1 hr, 1500 kBq/kg",9.16% ID Th-227/g organ
same,Th-227 in Tumor,"1 hr, 1500 kBq/kg",7.34% ID Th-227/g organ
same,Th-227 in bone,"1 hr, 1500 kBq/kg",5.16% ID Th-227/g organ
same,Th-227 in brain,"1 hr, 1500 kBq/kg",0.07% ID Th-227/g organ
same,Th-227 in kidney,"1 hr, 1500 kBq/kg",38.11% ID Th-227/g organ
same,Th-227 in large intestine,"1 hr, 1500 kBq/kg",0.57% ID Th-227/g organ
same,Th-227 in lung,"1 hr, 1500 kBq/kg",2.88% ID Th-227/g organ
same,Th-227 in muscle,"1 hr, 1500 kBq/kg",0.76% ID Th-227/g organ
same,Th-227 in prostate,"1 hr, 1500 kBq/kg",1.15% ID Th-227/g organ
same,Th-227 in salivary glands,"1 hr, 1500 kBq/kg",1.62% ID Th-227/g organ
same,Th-227 in small intestine,"1 hr, 1500 kBq/kg",0.84% ID Th-227/g organ
same,Th-227 in Blood,"4 hr, 1500 kBq/kg",1.05% ID Th-227/g organ
same,Th-227 in Liver,"4 hr, 1500 kBq/kg",1.32% ID Th-227/g organ
same,Th-227 in Spleen,"4 hr, 1500 kBq/kg",6.17% ID Th-227/g organ
same,Th-227 in Tumor,"4 hr, 1500 kBq/kg",13.09% ID Th-227/g organ
same,Th-227 in bone,"4 hr, 1500 kBq/kg",7.25% ID Th-227/g organ
same,Th-227 in brain,"4 hr, 1500 kBq/kg",0.04% ID Th-227/g organ
same,Th-227 in kidney,"4 hr, 1500 kBq/kg",32.13% ID Th-227/g organ
same,Th-227 in large intestine,"4 hr, 1500 kBq/kg",0.76% ID Th-227/g organ
same,Th-227 in lung,"4 hr, 1500 kBq/kg",1.55% ID Th-227/g organ
same,Th-227 in muscle,"4 hr, 1500 kBq/kg",0.37% ID Th-227/g organ
same,Th-227 in prostate,"4 hr, 1500 kBq/kg",1.06% ID Th-227/g organ
same,Th-227 in salivary glands,"4 hr, 1500 kBq/kg",0.72% ID Th-227/g organ
same,Th-227 in small intestine,"4 hr, 1500 kBq/kg",0.74% ID Th-227/g organ
same,Th-227 in Blood,"6 hr, 500 kBq/kg, study b2999",0.06 % ID Th-227/g organ
same,Th-227 in Femur and tibia,"6 hr, 500 kBq/kg, study b2999",0.31 % ID Th-227/g organ
same,Th-227 in Kidneys,"6 hr, 500 kBq/kg, study b2999",67.34 % ID Th-227/g organ
same,Th-227 in Liver,"6 hr, 500 kBq/kg, study b2999",0.19 % ID Th-227/g organ
same,Th-227 in Salivary gland,"6 hr, 500 kBq/kg, study b2999",2.84 % ID Th-227/g organ
same,Th-227 in Spleen,"6 hr, 500 kBq/kg, study b2999",0.73 % ID Th-227/g organ
